The target of the assay is T1, KCC2 (Homo sapiens, UniProt Q9H2X9).
T1 construct: expressed in transfected cells; host or cells: HEK293 cells electroporated (Maxcyte STX) with the pcDNA3.1 KCC2 plasmid
T1 sequence (Q9H2X9 1-1139): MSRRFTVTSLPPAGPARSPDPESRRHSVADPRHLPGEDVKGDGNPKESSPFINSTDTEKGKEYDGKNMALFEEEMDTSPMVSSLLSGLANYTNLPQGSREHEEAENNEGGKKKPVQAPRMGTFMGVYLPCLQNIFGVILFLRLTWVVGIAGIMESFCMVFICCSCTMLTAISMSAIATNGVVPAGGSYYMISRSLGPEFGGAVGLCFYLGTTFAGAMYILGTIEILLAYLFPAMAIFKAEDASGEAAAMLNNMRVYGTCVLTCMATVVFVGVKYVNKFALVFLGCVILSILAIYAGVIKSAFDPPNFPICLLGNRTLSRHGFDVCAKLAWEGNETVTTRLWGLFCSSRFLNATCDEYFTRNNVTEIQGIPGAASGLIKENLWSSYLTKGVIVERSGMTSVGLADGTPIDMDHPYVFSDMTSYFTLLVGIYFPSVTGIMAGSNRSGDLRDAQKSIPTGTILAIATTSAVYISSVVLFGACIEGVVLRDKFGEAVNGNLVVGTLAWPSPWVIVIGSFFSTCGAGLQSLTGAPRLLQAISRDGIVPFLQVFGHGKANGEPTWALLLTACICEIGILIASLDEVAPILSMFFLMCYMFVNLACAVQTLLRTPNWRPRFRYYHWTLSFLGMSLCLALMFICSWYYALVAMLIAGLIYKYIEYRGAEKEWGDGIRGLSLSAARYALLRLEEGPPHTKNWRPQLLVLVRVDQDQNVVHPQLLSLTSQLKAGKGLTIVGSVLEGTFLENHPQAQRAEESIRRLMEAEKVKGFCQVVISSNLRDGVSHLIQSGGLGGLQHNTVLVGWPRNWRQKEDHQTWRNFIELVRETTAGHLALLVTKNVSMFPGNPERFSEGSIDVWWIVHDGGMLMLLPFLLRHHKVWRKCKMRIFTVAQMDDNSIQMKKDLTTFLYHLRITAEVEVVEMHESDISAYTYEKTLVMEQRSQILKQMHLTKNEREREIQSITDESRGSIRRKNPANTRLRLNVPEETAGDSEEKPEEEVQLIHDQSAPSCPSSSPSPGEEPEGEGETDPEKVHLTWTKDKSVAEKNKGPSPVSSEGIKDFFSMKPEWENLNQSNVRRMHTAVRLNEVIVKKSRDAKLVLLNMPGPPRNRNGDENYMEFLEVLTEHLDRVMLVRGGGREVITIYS
Kind of assay: KCC2 thallium transport FLIPR-based assay (Tl+ influx in HEK293 cells expressing KCC2). In kind it is cell-based. To be noted: 90 min compound incubation at RT, thallium flux at 120 s used to determine EC50. As for the experimental part:
A thallium transport FLIPR-based assay was used to measure the ability of compounds to activate KCC2. KCC2 activity is assessed by measuring KCC2-dependent Tl^+ influx in a KCC2-expressing cell. The assay protocol was based on those described by Delpire et al (Proc Natl Acad Sci USA. 2009 Mar. 31; 106(13): 5383-5388) and Zhang et al (Journal of Biomolecular Screening 15(2): 2010).
KCC2 was synthesised and codon optimised by GeneArt based on the Uniprot sequence Q9H2X9. The final sequence was subcloned into pcDNA3.1.
HEK293 cells were grown in 10 layer cell stacks at 37° C., 5% CO2, in DMEM, 10% fetal calf serum and 2 mM Glutamine. The cells were detached by removing the media and washing the cell stack with 100 ml of PBS. The PBS was removed and 100 ml of 1× TrypLE was added and the cell stack returned to 37° C. for 5 min. The detached cells were then counted in a Vi Cell counter and spun for 10 min at 1250 rpm in a Sorval Legend centrifuge. The cells were diluted down in Maxcyte electroporation buffer at 4× the final concentration and spun as before. The cell pellet was resuspended at 1×10^8/cells per ml and electroporated in a Maxcyte Cl 2.2 bag on a Maxcyte STX machine via the HEK293 programme with 200 ug/ml of plasmid DNA. The cells were then allowed to recover for 30 min before adding to 500 ml of PBS and then counted again on the Vi Cell. The cells were then frozen down in planer controlled rate freeze in 90% complete media, 10% DMSO.
All reagents were dispensed using a Mulitdrop Combi unless stated otherwise. All FluXOR Invitrogen propriety buffer compositions are mentioned in tables below.
HEK293 KCC2 cells were harvested at a density of 3.33×10^5 cells/mL in complete media (DMEM, Sigma, D6546, 10% fetal calf serum and 1% Glutamax) and 30 μL per well seeded into 384-well PDL coated black-clear plates (Corning, 354663). Leave cells at RT for 20 mins to settle before incubating for 48 h at 37° C., 5% CO2. Following incubation, perform three wash steps in HBSS (Sigma, H6648) using a Biotek cell washer with the final aspiration leaving 20 μL HBSS residual volume in each well. A further 20 μL per well of thallium loading dye is then added (1 h, RT, protect from light). 5 μL of test compounds (100 μM top concentration, 1:2 dilutions, 12 point curve) were added using the FLIPR TETRA and incubated at RT for 90 min in the dark. Following compound incubation, the thallium flux response is read on FLIPR TETRA (ex. 515-575 nm) which is initiated by FLIRR TETRA dispensing 5 μL stimulus buffer into each well. Recordings are measured every 1 second for 120 seconds. Thallium flux at 120 s used to determine EC50.
Compound buffer: Assay buffer with 1 μL of bumetanide per 10 ml.
By EC50 is commonly meant the concentration at which the effect is half-maximal. `CC(C)N1Cc2c(Nc3ccc(C4CCCCC4)cc3)nc(-c3ccnc(C#N)c3)nc2C1=O` [Example 41, 4-(4-((4-cyclohexylphenyl)amino)-6-isopropyl-7-oxo-6,7-dihydro-5H-pyrrolo[3,4-d]pyrimidin-2-yl)picolinonitrile] came in with a half-maximal effective concentration (EC50) of 0.518 µM. To `CC(C)N1Cc2c(Nc3ccc(C4CCCCC4)cc3)nc(N3CCOC(CC(F)(F)F)C3)nc2C1=O` (stereo not shown) [Example 16, 4-[(4-cyclohexylphenyl)amino]-6-(propan-2-yl)-2-[2-(2,2,2-trifluoroethyl)morpholin-4-yl]-5,6-dihydro-7H-pyrrolo[3,4-d]pyrimidin-7-one] belongs 0.749 µM. `CC(C)N1Cc2c(Nc3ccc(C4CCCCC4)cc3)nc(N3CCOCC3)nc2C1=O` [Example 11, 4-[(4-cyclohexylphenyl)amino]-2-(morpholin-4-yl)-6-(propan-2-yl)-5,6-dihydro-7H-pyrrolo[3,4-d]pyrimidin-7-one]: the midpoint of the response, the EC50, lay at 2.01 µM. With `CC(C)N1Cc2c(Nc3ccc(-c4ccccc4)c(F)c3)nc(C3=CCOCC3)nc2C1=O` [Example 82, 2-(3,6-dihydro-2H-pyran-4-yl)-4-((2-fluoro-[1,1′-biphenyl]-4-yl)amino)-6-isopropyl-5,6-dihydro-7H-pyrrolo[3,4-d]pyrimidin-7-one] the figure was 2.29 µM.

Regarding `CCN(CC)c1nc(Nc2ccc(C3CCCCC3)cc2)c2c(n1)C(=O)N(C(C)C)C2` [Example 34, 4-[(4-cyclohexylphenyl)amino]-2-(diethylamino)-6-(propan-2-yl)-5,6-dihydro-7H-pyrrolo[3,4-d]pyrimidin-7-one], the EC50 came to 5.21 µM.

`CC(C)N1Cc2c(Nc3ccc(C4CCCCC4)cc3)nc(N3CCO[C@H](CNC(=O)OC(C)(C)C)C3)nc2C1=O` [Example 17, tert-butyl {[(2R)-4-{4-[(4-cyclohexylphenyl)amino]-7-oxo-6-(propan-2-yl)-6,7-dihydro-5H-pyrrolo[3,4-d]pyrimidin-2-yl}morpholin-2-yl]methyl}carbamate] registered an EC50 of 1.09 µM.

On to `NC(=O)c1cnc2nc(N3CCOC(C4CC4)C3)nc(Nc3ccc(C4CCCCC4)cc3)c2c1` (stereo not shown) [Example 105, 4-((4-cyclohexylphenyl)amino)-2-(2-cyclopropylmorpholino) pyrido[2,3-d]pyrimidine-6-carboxamide], for which a half-maximal response (EC50) required 1.17 µM. To `C#CCOc1ccc(-c2ccc(Nc3nc(N4CCOCC4)nc4c3CN(C(C)C)C4=O)cc2)cc1` [Example 71, 2-(morpholin-4-yl)-6-(propan-2-yl)-4-({4′-[(prop-2-yn-1-yl)oxy][1,1′-biphenyl]-4-yl}amino)-5,6-dihydro-7H-pyrrolo[3,4-d]pyrimidin-7-one] belongs 4.13 µM; to `C1=C(c2nc3c(c(Nc4ccc(C5CCC5)cc4)n2)COC3)CCOC1` [Example 91, N-(4-cyclobutylphenyl)-2-(3,6-dihydro-2H-pyran-4-yl)-5,7-dihydrofuro[3,4-d]pyrimidin-4-amine], 9.92 µM; to `CCCN(CCC)c1nc(Nc2ccc(C3CCCCC3)cc2)c2c(n1)C(=O)N(C(C)C)C2` [Example 29, 4-[(4-cyclohexylphenyl)amino]-2-(dipropylamino)-6-(propan-2-yl)-5,6-dihydro-7H-pyrrolo[3,4-d]pyrimidin-7-one], 3.89 µM. With `CC(C)N1Cc2nc(N3CCOCC3)nc(Nc3ccc(C4CCCCC4)cc3)c2C1` [Example 109, N-(4-cyclohexylphenyl)-6-isopropyl-2-morpholino-6,7-dihydro-5H-pyrrolo[3,4-d]pyrimidin-4-amine] the figure was 6.34 µM; with `CC(C)N1Cc2c(Nc3ccc(C4CCCCC4)cc3)nc(N(C)Cc3cnccn3)nc2C1=O` [Example 33, 4-[(4-cyclohexylphenyl)amino]-2-{methyl[(prazin-2-yl)methyl]amino}-6-(propan-2-yl)-5,6-dihydro-7H-pyrrolo[3,4-d]pyrimidin-7-one], 5.01 µM; with `C[C@@H]1CN(c2nc(Nc3ccc(C4CCCCC4)cc3)c3cc(C(=O)O)cnc3n2)CCO1` [Example 103, (R)-4-((4-cyclohexylphenyl)amino)-2-(2-methylmorpholino)pyrido[2,3-d]pyrimidine-6-carboxylic acid], 3.99 µM.

Source of the values: patent US12617795B2, “Substituted 6,7-dihydro-5H-pyrrolo[3,4-d]pyrimidines, 5,7-dihydrofuro[3,4-d]pyrimidines, and pyrido[2,3-d]pyrimidines as KCC2 modulators” (Astrazeneca AB, priority 2020, dated 2026).
